Patent US20140357706A1, “Stearate Compounds” (THE UAB RESEARCH FOUNDATION, priority 2011, published 2014)

Test system: differentiated 3T3L1 adipocytes
Assay: Necrosis and apoptosis of differentiated 3T3L1 adipocytes (trypan blue, LDH, flow cytometry)
Type: cell-based, mouse
Details: 50 μM
Protocol: 3T3L1 mouse fibroblast cells (ATCC, CL-173™) were maintained according to the manufacture's protocol, in Dulbecco's modified eagle's medium (DMEM) containing 10% Fetal Bovine Serum and antibiotics (M1 medium). Adipocyte differentiation was performed according to standard procedures (42). Briefly, the 3T3L1 fibroblasts were seeded at 30% confluence and allowed to grow to near 100% confluence. On the day after reaching maximum confluence, conversion was induced by replacing the M1 medium with M1 medium containing insulin (5 μg/ml), dexamethasone (0.25 μM), and 3-isobutyl-1-methyl-xanthine (0.5 mM). After 2 days, the cells were changed to M1 medium with insulin (5 μg/ml) for an additional 2 days. Thereafter, the cells were maintained in M1 medium without additives for 2 days.
50 μM of stearate, oleate or linoleate was used to treat 3T3L1 cells as this concentration is centered within the normal range for non-esterified stearate in the plasma of humans. Stearate, oleate, or linoleate was loaded onto fatty acid free BSA according to the method reported by Spector and Hoak (Spector and Hoak, 1969). Briefly, stearate (0.5 g) was dissolved in chloroform (100 mL) and mixed well with 10 g diatomaceous earth in a 1 liter flask. The mixture was stirred and dried under nitrogen until powder. Fatty acid free BSA (1 g) was dissolved in 100 mL with DMEM without phenol red and mixed with 3 g of the stearate/diatomaceous earth mixture and stirred for 30 minutes. The stearate/BSA solution was filtered through a 0.45 μm filter, and adjusted to pH 7.4. The concentration of stearate in the solution was detected by use of a NEFA C kit. Oleic and linoleate were loaded in the same way. […] Before the treatment with fatty acid, 3T3L1 preadipocytes were grown to 100%, and were starved in 2% FBS medium for 24 hours.
After treatment, 3T3L1 cells were harvested, washed with cold PBS, and then resuspended in 100 μl annexin-binding buffer (50 mM HEPES, 700 mM NaCl, 12.5 mM CaCl2, pH 7.4). Cell density was determined, and the cells were diluted to 10^6 cells. Then 5μL of Alex Fluo 488 annexin V and 1 μL propidium iodide (PI) were added. Cells were gently oscillated and incubated for 15 min at room temperature. After adding 400 μL of binding buffer to each tube, cells were kept on ice and analyzed by flow cytometry within 1 hour. Cells that stained positive for Alex Fluo 488 annexin V and negative for PI were considered to be apoptotic. Cells that stained positive for both Alex Fluo 488 annexin V and PI were considered either in the end stage of apoptosis, or necrosis. Cells that stained negative for both Alex Fluo 488 annexin V and PI were considered alive and not undergoing measurable apoptosis. A BD LSR II flow cytometer from Becton Dickinson was used in all flow experiments and the data were analyzed with BD FACSDiva™ software V.6.1.3.
Lactate dehydrogenase (LDH) release was measured using a cytotoxicity detection kit, according to the manufacture's protocol. After 3T3L1 cells were treated, 1 ml of cell culture medium was removed and centrifuged. The supernatant was retained for assaying. For determinations, 100 μl of LDH assay reagent was added to 100 μl of supernatant and incubated for 30 min at room temperature in the dark. Absorbance was measured at 490 nm. Background release from culture medium alone was subtracted before reporting. Maximum release was measured after adding 2% Triton X-100 to untreated cells.
After treatment, 3T3L1 cells were harvested and stained with 0.4% trypan blue solution. Cells in the four corners of the grid were counted under a conventional bright field binocular microscope.

CCCCCCCCCCCCCCCCCC(=O)O [stearate, Stearic acid]
no significant changes: Cytotoxicity (lactate dehydrogenase in medium) | Percentage of apoptotic cells (flow cytometry) | Percentage of dead cells (flow cytometry) | Percentage of dead cells (trypan blue)
